Assay results from publication PMC10031741, “A D-cysteine desulfhydrase, SlDCD2, participates in tomato fruit ripening by modulating ROS homoeostasis and ethylene biosynthesis” (Horticulture Research, 2023).

Target: T1, SlDCD2 (Solanum lycopersicum, UniProt A0A3Q7EA38)
T1 construct: gene LOC101256906; tag removal not mentioned
T1 sequence (A0A3Q7EA38 1-442): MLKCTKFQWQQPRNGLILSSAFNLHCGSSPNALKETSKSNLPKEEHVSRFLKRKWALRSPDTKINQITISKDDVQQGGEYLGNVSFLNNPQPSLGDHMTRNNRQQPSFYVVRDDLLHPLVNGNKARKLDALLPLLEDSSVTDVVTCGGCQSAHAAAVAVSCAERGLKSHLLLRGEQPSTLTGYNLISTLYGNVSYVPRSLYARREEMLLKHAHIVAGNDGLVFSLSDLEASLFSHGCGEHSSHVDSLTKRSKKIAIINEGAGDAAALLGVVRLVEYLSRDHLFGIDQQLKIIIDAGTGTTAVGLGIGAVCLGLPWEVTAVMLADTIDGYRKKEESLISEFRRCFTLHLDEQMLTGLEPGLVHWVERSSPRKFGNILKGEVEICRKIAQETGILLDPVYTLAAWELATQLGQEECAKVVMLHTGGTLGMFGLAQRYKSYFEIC
Experiment: H2S production, methylene blue at […] nm
Assay type: biochemical
Conditions: H2S release; assay as in cited reference

For `N[C@H](CS)C(=O)O` [D-cysteine], the “H2S production, methylene blue at 670 nm” value was “Using D-cysteine as the substrate, the enzymatic activity of SlDCD2 was evaluated”.
